Experimental data from patent US20210380630A1, “Bio-catalyzed Synthesis of New Aromatase Inhibitors through Structural Modifications of Anticancer Drug Formestane” (priority 2021, published 2021).
Where two headings read alike, the source gives them in different places.

What was measured:
[1] = molecular target: T1, aromatase (human placental microsomes) (Homo sapiens, UniProt P11511); assay: human placental aromatase assay; format: biochemical
T1 construct: protein (2 mg) from human placental microsomes; from tissue; host or cells: human placenta (microsomal fraction)
T1 sequence (P11511 1-503): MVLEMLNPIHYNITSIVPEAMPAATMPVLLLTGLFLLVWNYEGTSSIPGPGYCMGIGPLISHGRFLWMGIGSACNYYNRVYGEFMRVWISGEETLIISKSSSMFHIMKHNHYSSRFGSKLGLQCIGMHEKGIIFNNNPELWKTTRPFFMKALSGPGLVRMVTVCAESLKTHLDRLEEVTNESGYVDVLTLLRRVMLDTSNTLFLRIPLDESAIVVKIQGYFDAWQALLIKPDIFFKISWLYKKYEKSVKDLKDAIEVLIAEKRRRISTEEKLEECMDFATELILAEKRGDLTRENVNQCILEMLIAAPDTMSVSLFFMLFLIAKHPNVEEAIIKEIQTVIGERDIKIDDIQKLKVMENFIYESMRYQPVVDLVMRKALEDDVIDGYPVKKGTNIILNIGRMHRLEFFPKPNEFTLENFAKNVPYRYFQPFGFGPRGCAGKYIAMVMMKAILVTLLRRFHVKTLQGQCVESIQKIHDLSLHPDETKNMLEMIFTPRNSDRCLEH

[2] = test system: human fibroblast (BJ) normal cell line; assay: cytotoxicity against BJ normal cell line

Compound | IC50 [1] | IC50 ([1]; human placental microsomes, 10 μM testosterone, estradiol by UPLC, read-out: IC50 aromatase inhibition) | cytotoxicity to BJ normal cell line [2]
C[C@]12CCC(=O)C(O)=C1CC[C@@H]1[C@@H]2CC[C@]2(C)C(=O)CC[C@@H]12 [Compound 1, Formestane] | 335 ± 11 nM |  | 
C[C@]12CC[C@H]3[C@@H]([C@H](O)C[C@@]4(O)[C@H](O)C(=O)CC[C@]34C)[C@@H]1CCC2=O [Compound 2, 4α,5α,7α-Trihydroxyandrostane-3,17-dione] | 5230 ± 94 nM |  | 
C[C@]12CC[C@H](O)C(=O)C1C[C@H](O)[C@@H]1[C@@H]2CC[C@]2(C)C(=O)CC[C@@H]12 (stereo partly drawn) [Compound 3, 3β,7β-Dihydroxyandrostane-4,17-dione] |  | 1370 ± 29 nM | 
C[C@]12CC[C@H]3[C@@H]([C@@H](O)C[C@@]4(O)C(=O)[C@@H](O)CC[C@]34C)[C@@H]1CCC2=O [Compound 4, 3β,5α,7β-Trihydroxyandrostane-4,17-dione] | 386 ± 72 nM |  | 
C[C@]12C=CC(=O)C(O)=C1CC[C@@H]1[C@@H]2[C@H](O)C[C@]2(C)C(=O)CC[C@@H]12 [Compound 5, 4,11α-Dihydroxyandrosta-1,4-diene-3,17-dione] | 34300 ± 532 nM |  | non-cytotoxic
